According to EP4793641A1, “NOVEL METHOD FOR ANALYZING BIOMOLECULAR INTERACTIONS” (Kyoto University, priority 2023, dated 2025):
Non-standard residues stand in square brackets, D forms with d. Residues, ends and D or L forms follow the SMILES beside them. *: point of attachment. pS = N[C@@H](COP(=O)(O)O)C(=O)O; Bn = c1ccc(C*)cc1

target: T1, interactions between Talin 1 (TLN1) and integrin subunit beta (ITGB) (Homo sapiens, UniProt Q9Y490); experiment: Flip-flop detection mechanism on DNA origami (LgBit/SmBit luminescence), inhibitor screening; format: biochemical; settings: inhibition of binding between TLN1 and ITBG
T1 construct: LgBit or SmBit (N-terminal of the HaloTag); made in house
Text: Two types of systems, i.e., flip-flop detection mechanism and switch detection mechanism, were constructed by using HaloTag, LgBit, SmBit, TLN1, and ITGB. Each of TLN1 (Uniprot ID: Q9Y490) and ITGB1 (Uniprot ID: P05556) was cloned from the registered genetic information. HaloTAg has three chemically modifiable locations at a ligand recognition site, C-terminus, and N-terminus. In this Example, a single-stranded DNA for attaching to DNA origami was connected to a ligand recognition site of HaloTag, a subunit of an interaction complex was connected to the C-terminus, and LgBit or SmBit was connected to the N-terminus.
The outline of the system is disclosed in Figure 23. When TLN1 and ITBG are in a bound state in this system, LgBit and SmBit are at spatially separated positions from each other, with a HaloTag interposed therebetween. In this regard, if an inhibitor is added, complex formation of TLN1 and ITBG is inhibited. As a result, a LgBit-SmBit complex can be formed, and a luminescence reaction progresses.
As a candidate drug for inhibiting the binding between TLN1 and ITBG, peptide inhibitors consisting of 13 amino acids prepared by modifying amino acids in an intracellular region of ITGB3 have been designed (Shen B. et al., A directional switch of integrin signaling and a new antithrombotic strategy. Nature 503, 131-135 (2013)). IC50 values for the peptides shown in the following table were calculated by using the flip-flop detection mechanism described in Example 11 for optimizing the sequence. In this manner, the effect of a large number of compounds on the interaction with a target protein can be readily analyzed in the system of the present disclosed.

| Compound | Inhibitory activity |
| --- | --- |
| CSCC[C@H](NC(=O)[C@H](Cc1c[nH]c2ccccc12)NC(=O)[C@H](CCCCN)NC(=O)[C@H](CS)NC(=O)[C@H](CC(N)=O)NC(=O)[C@H](CCSC)NC(=O)[C@H](CCCCN)NC(=O)[C@H](CCC(=O)O)NC(=O)[C@H](CCCCN)NC(=O)[C@H](CCC(=O)O)NC(=O)[C@H](Cc1ccccc1)NC(=O)[C@@H](N)CCCCN)C(=O)N[C@@H](COP(=O)(O)O)C(=O)O [FIYM14] (H-KFEKEKMNCKWM[pS]-OH) | no inhibition |
| CSCC[C@H](NC(=O)[C@H](CCCCN)NC(=O)[C@H](CCC(=O)O)NC(=O)[C@H](CCCCN)NC(=O)[C@H](CCC(=O)O)NC(=O)[C@H](Cc1ccccc1)NC(=O)[C@@H](N)CCCCN)C(=O)N[C@@H](CC(N)=O)C(=O)N[C@@H](CCSC)C(=O)N[C@@H](CCCCN)C(=O)N[C@@H](Cc1c[nH]c2ccccc12)C(=O)N[C@@H](CCSC)C(=O)N[C@H](C(=O)O)[C@@H](C)O [FIYM35] (H-KFEKEKMNMKWMT-OH) | no inhibition |
| CSCC[C@H](NC(=O)[C@H](CCCCN)NC(=O)[C@H](CCC(=O)O)NC(=O)[C@H](CCCCN)NC(=O)[C@H](CCC(=O)O)NC(=O)[C@H](Cc1ccccc1)NC(=O)[C@@H](N)CCCCN)C(=O)N[C@@H](CCSC)C(=O)N[C@@H](CS)C(=O)N[C@@H](CCCCN)C(=O)N[C@@H](Cc1c[nH]c2ccccc12)C(=O)N[C@@H](CCSC)C(=O)N[C@H](C(=O)O)[C@@H](C)O [FIYM29] (H-KFEKEKMMCKWMT-OH) | no inhibition |
| CSCC[C@H](NC(=O)[C@H](CCCNC(=N)N)NC(=O)[C@H](CCC(=O)O)NC(=O)[C@H](Cc1ccccc1)NC(=O)[C@@H](N)CCCCN)C(=O)N[C@@H](CC(N)=O)C(=O)N[C@@H](CS)C(=O)N[C@@H](CCCCN)C(=O)N[C@@H](Cc1c[nH]c2ccccc12)C(=O)N[C@@H](CCSC)C(=O)N[C@H](C(=O)O)[C@@H](C)O [FIYM20] (H-KFERMNCKWMT-OH) | no inhibition |

Continued, values first:

| Inhibitory activity | Compound |
| --- | --- |
| no inhibition | CSCC[C@H](NC(=O)[C@H](CCCCN)NC(=O)[C@H](CCC(=O)O)NC(=O)[C@H](CCCCN)NC(=O)[C@H](CCC(=O)O)NC(=O)[C@H](C)NC(=O)[C@@H](N)CCCCN)C(=O)N[C@@H](CC(N)=O)C(=O)N[C@@H](C)C(=O)N[C@@H](CCCCN)C(=O)N[C@@H](C)C(=O)N[C@@H](CC(=O)O)C(=O)N[C@H](C(=O)O)[C@@H](C)O [FIYM2] (H-KAEKEKMNAKADT-OH) |
| no inhibition | CC[C@H](C)[C@H](NC(=O)[C@@H]1CCCN1C(=O)[C@H](CC(N)=O)NC(=O)[C@H](CCC(=O)O)NC(=O)CNC(=O)[C@@H](NC(=O)[C@H](CC(=O)O)NC(=O)[C@H](Cc1c[nH]c2ccccc12)NC(=O)[C@H](CCCCN)NC(=O)[C@H](C)NC(=O)[C@H](CC(N)=O)NC(=O)[C@H](CCSC)NC(=O)[C@H](CCCCN)NC(=O)[C@H](CCC(=O)O)NC(=O)[C@H](CCCCN)NC(=O)[C@H](CCC(=O)O)NC(=O)[C@H](Cc1ccccc1)NC(=O)[C@@H](N)CCCCN)[C@@H](C)O)C(=O)N[C@@H](Cc1ccc(O)cc1)C(=O)N[C@@H](CCCCN)C(=O)O [FIYM6] (H-KFEKEKMNAKWDTGENPIYK-OH) |
| no inhibition | CSCC[C@H](NC(=O)[C@H](CCCCN)NC(=O)[C@H](CCC(=O)O)NC(=O)[C@H](CCCNC(=N)N)NC(=O)[C@H](CCC(=O)O)NC(=O)[C@H](Cc1ccccc1)NC(=O)[C@@H](N)CCCCN)C(=O)N[C@@H](CCSC)C(=O)N[C@@H](CS)C(=O)N[C@@H](CCCCN)C(=O)N[C@@H](Cc1c[nH]c2ccccc12)C(=O)N[C@@H](CCSC)C(=O)N[C@H](C(=O)O)[C@@H](C)O [FIYM32] (H-KFEREKMMCKWMT-OH) |
| no inhibition | CSCC[C@H](NC(=O)[C@H](CCCCN)NC(=O)[C@H](CCC(=O)O)NC(=O)[C@H](CCCCN)NC(=O)[C@H](CCC(=O)O)NC(=O)[C@H](Cc1ccccc1)NC(=O)[C@@H](N)CCCCN)C(=O)N[C@@H](CC(N)=O)C(=O)N[C@@H](COP(=O)(O)O)C(=O)N[C@@H](CCCCN)C(=O)N[C@@H](Cc1c[nH]c2ccccc12)C(=O)N[C@@H](CCSC)C(=O)N[C@H](C(=O)O)[C@@H](C)O [FIYM36] (H-KFEKEKMN[pS]KWMT-OH) |
| no inhibition | CSCC[C@H](NC(=O)[C@H](CCCCN)NC(=O)[C@H](CCC(=O)O)NC(=O)[C@H](CCCCN)NC(=O)[C@H](CCC(=O)O)NC(=O)[C@H](Cc1ccccc1)NC(=O)[C@@H](N)CCCCN)C(=O)N[C@@H](CC(N)=O)C(=O)N[C@@H](C)C(=O)N[C@@H](CCCCN)C(=O)N[C@@H](Cc1c[nH]c2ccccc12)C(=O)N[C@@H](CCSC)C(=O)N[C@H](C(=O)O)[C@@H](C)O [FIYM9] (H-KFEKEKMNAKWMT-OH) |
| no inhibition | CSCC[C@H](NC(=O)[C@H](CCCCN)NC(=O)[C@H](CCC(=O)O)NC(=O)[C@H](CCCCN)NC(=O)[C@H](CCC(=O)O)NC(=O)[C@H](Cc1ccccc1)NC(=O)[C@H](CCCCN)NC(=O)[C@@H]1CCCN1)C(=O)N[C@@H](CC(N)=O)C(=O)N[C@@H](CS)C(=O)N[C@@H](CCCCN)C(=O)N[C@@H](Cc1c[nH]c2ccccc12)C(=O)N[C@@H](CCSC)C(=O)N[C@H](C(=O)O)[C@@H](C)O [FIYM54] (H-PKFEKEKMNCKWMT-OH) |
| no inhibition | CSCC[C@H](NC(=O)[C@H](CCCCN)NC(=O)[C@H](CCC(=O)O)NC(=O)[C@H](CCCCN)NC(=O)[C@H](CCC(=O)O)NC(=O)[C@H](Cc1ccccc1)NC(=O)[C@@H](N)CCCCN)C(=O)N[C@@H](CC(N)=O)C(=O)N[C@@H](CSCc1ccccc1)C(=O)N[C@@H](CCCCN)C(=O)N[C@@H](Cc1c[nH]c2ccccc12)C(=O)N[C@@H](CCSC)C(=O)N[C@H](C(=O)O)[C@@H](C)O [FIYM43] (H-KFEKEKMNC(Bn)KWMT-OH) |

same assay, conditions: inhibition of binding between TLN1 and ITBG, read-out: Inhibitory activity

| IC50 | Compound |
| --- | --- |
| 472 µM | CSCC[C@H](NC(=O)[C@H](Cc1c[nH]c2ccccc12)NC(=O)[C@H](CCCCN)NC(=O)[C@H](CS)NC(=O)[C@H](CC(N)=O)NC(=O)[C@H](CCSC)NC(=O)[C@H](CCCCN)NC(=O)[C@H](CCC(=O)O)NC(=O)[C@H](CCCCN)NC(=O)[C@H](CCC(=O)O)NC(=O)[C@H](Cc1ccccc1)NC(=O)[C@@H](N)CCCCN)C(=O)O [FIYM22] (H-KFEKEKMNCKWM-OH) |
| 144 µM | CSCC[C@H](NC(=O)[C@H](CCCCN)NC(=O)[C@H](CCC(=O)O)NC(=O)[C@H](CCCCN)NC(=O)[C@H](CCC(=O)O)NC(=O)[C@H](Cc1ccccc1)NC(=O)[C@H](CCCCN)NC(=O)[C@@H]1CCCN1C(C)=O)C(=O)N[C@@H](CC(N)=O)C(=O)N[C@@H](CS)C(=O)N[C@@H](CCCCN)C(=O)N[C@@H](Cc1c[nH]c2ccccc12)C(=O)N[C@@H](CCSC)C(=O)N[C@H](C(=O)O)[C@@H](C)O [FIYM17] (Ac-PKFEKEKMNCKWMT-OH) |
| 474 µM | CSCC[C@H](NC(=O)[C@H](C)NC(=O)[C@H](CCCCN)NC(=O)[C@H](CS)NC(=O)[C@H](CC(N)=O)NC(=O)[C@H](CCSC)NC(=O)[C@H](CCCCN)NC(=O)[C@H](CCC(=O)O)NC(=O)[C@H](CCCCN)NC(=O)[C@H](CCC(=O)O)NC(=O)[C@H](C)NC(=O)[C@@H](N)CCCCN)C(=O)N[C@H](C(=O)O)[C@@H](C)O [FIYM46] (H-KAEKEKMNCKAMT-OH) |
| 212 µM | KF(-Me)EKEKMNCKWMT (KFEKEKMNCKWMT) [FIYM19] |
| 94.7 µM | CSCC[C@H](NC(=O)[C@H](CCCCN)NC(=O)[C@H](CCC(=O)O)NC(=O)[C@H](CCCNC(=N)N)NC(=O)[C@H](CCC(=O)O)NC(=O)[C@H](Cc1ccccc1)NC(=O)[C@@H](N)CCCCN)C(=O)N[C@@H](CC(N)=O)C(=O)N[C@@H](CS)C(=O)N[C@@H](CCCCN)C(=O)N[C@@H](Cc1c[nH]c2ccccc12)C(=O)N[C@@H](CCSC)C(=O)N[C@H](C(=O)O)[C@@H](C)O [FIYM27] (H-KFEREKMNCKWMT-OH) |
| 444 µM | CSCC[C@H](NC(=O)[C@H](CCCCN)NC(=O)[C@H](CCC(=O)O)NC(=O)[C@H](CCCCN)NC(=O)[C@H](CCC(=O)O)NC(=O)[C@@H](N)Cc1ccccc1)C(=O)N[C@@H](CC(N)=O)C(=O)N[C@@H](CS)C(=O)N[C@@H](CCCCN)C(=O)N[C@@H](Cc1c[nH]c2ccccc12)C(=O)N[C@@H](CCSC)C(=O)N[C@H](C(=O)O)[C@@H](C)O [FIYM23] (H-FEKEKMNCKWMT-OH) |

same assay, conditions: inhibition of binding between TLN1 and ITBG, µM, read-out: Inhibitory activity

| IC50 | Compound |
| --- | --- |
| 107 µM | CSCC[C@H](NC(=O)[C@H](CCCCN)NC(=O)[C@H](CCC(=O)O)NC(=O)[C@H](CCCCN)NC(=O)[C@H](CCC(=O)O)NC(=O)[C@H](Cc1ccccc1)NC(=O)[C@H](CCCCN)NC(=O)[C@H](Cc1c[nH]cn1)NC(=O)[C@H](Cc1c[nH]cn1)NC(=O)[C@H](Cc1c[nH]cn1)NC(=O)[C@H](Cc1c[nH]cn1)NC(=O)[C@H](Cc1c[nH]cn1)NC(=O)[C@H](Cc1c[nH]cn1)NC(=O)[C@@H](N)CCSC)C(=O)N[C@@H](CC(N)=O)C(=O)N[C@@H](CS)C(=O)N[C@@H](CCCCN)C(=O)N[C@@H](Cc1c[nH]c2ccccc12)C(=O)N[C@@H](CCSC)C(=O)N[C@H](C(=O)O)[C@@H](C)O [FIYM49] (H-MHHHHHHKFEKEKMNCKWMT-OH) |
